For orientation: inhibition means the drop in the measured response relative to a control, in per cent. Read a high inhibition as a strong effect.

The values that follow come from ChEMBL document CHEMBL1133211, “Synthesis of feruloyl-myo-inositols and their inhibitory effects on superoxide generation” (2000).

For assay [1], the system named is HL-60. The assay can be described thus: Cell viability in TPA-induced superoxide (O2-) generation in human promyelocytic leukemia HL-60 cells, at 100 uM concentration. Type of assay: functional.
Assay [2] concerns HL-60. The assay can be described thus: Inhibitory activity against TPA-induced superoxide (O2-) generation in human promyelocytic leukemia HL-60 cells, at 100 uM concentration. It counts as functional.

The structures appear in SMILES notation.

In the assay with HL-60 [1], `COC(=O)/C=C/c1ccc(O)c(OC)c1` had a Cell viability of approximately 80%. This molecule also registered an inhibition at 100 µM in the assay with HL-60 [2] of approximately 2%.
`COc1cc(/C=C/C(=O)O)ccc1OC(C)=O` registered a Cell viability with HL-60 [1] of approximately 82%. Also, the inhibition at 100 µM in the assay on HL-60 [2] was approximately 2%.
As for `COc1cc(/C=C/C(=O)O[C@@H]2[C@H](O)[C@@H](O)[C@H](O)[C@@H](O)[C@@H]2OC(=O)/C=C/c2ccc(O)c(OC)c2)ccc1O`, the Cell viability in the assay with HL-60 [1] was approximately 80%. The same molecule gave an inhibition at 100 µM with HL-60 [2] of approximately 20%.
As to `COc1cc(/C=C/C(=O)O[C@@H]2[C@H]3OC4(CCCCC4)O[C@@H]3[C@@H](OC(=O)/C=C/c3ccc(O)c(OC)c3)[C@@H]3OC4(CCCCC4)O[C@H]23)ccc1O`, the Cell viability with HL-60 [1] is on record as approximately 60%. In addition, the inhibition at 100 µM in the assay with HL-60 [2] was approximately 30%.
The like results for `CCOC(=O)/C=C/c1ccc(O)c(OC)c1` [ETHYL FERULATE] were, in that order, approximately 80% and approximately 9%.
In the assay on HL-60 [1], `COc1cc(/C=C/C(=O)O[C@@H]2[C@H](O)[C@H](OC(C)=O)[C@@H](OC(C)=O)[C@H](OC(C)=O)[C@H]2OC(C)=O)ccc1OC(C)=O` yielded a Cell viability of approximately 45%. This molecule also came in with an inhibition at 100 µM in the assay on HL-60 [2] of approximately 5%.
On the same counts, the results for `COc1cc(/C=C/C(=O)O[C@@H]2[C@H](OC(C)=O)[C@@H](OC(C)=O)[C@H](OC(C)=O)[C@@H](OC(C)=O)[C@@H]2OC(=O)/C=C/c2ccc(OC(C)=O)c(OC)c2)ccc1OC(C)=O` are approximately 60% and approximately 100%.
For the molecule `COc1cc(/C=C/C(=O)O[C@H]2[C@@H](O)[C@@H](O)[C@H](OC(=O)/C=C/c3ccc(O)c(OC)c3)[C@@H](O)[C@@H]2O)ccc1O`, the Cell viability with HL-60 [1] is approximately 80%. In the assay with HL-60 [2], this molecule showed an inhibition at 100 µM of approximately 5%.
The like results for `COc1cc(/C=C/C(=O)O)ccc1O` [FERULATE] were, in that order, approximately 80% and approximately 12%.
`COc1cc(/C=C/C(=O)O[C@H]2[C@@H](O)[C@@H](O)[C@H](OC(=O)/C=C/c3ccc(OC(C)=O)c(OC)c3)[C@@H](O)[C@@H]2O)ccc1OC(C)=O`: the Cell viability in the assay with HL-60 [1] is reported as approximately 72%. In the assay on HL-60 [2], this molecule returned an inhibition at 100 µM of approximately 20%.
For the molecule `COc1cc(/C=C/C(=O)O[C@@H]2[C@H]3OC4(CCCCC4)O[C@@H]3[C@@H](OC(=O)/C=C/c3ccc(OC(C)=O)c(OC)c3)[C@@H]3OC4(CCCCC4)O[C@H]23)ccc1OC(C)=O`, the Cell viability in the assay on HL-60 [1] is listed as approximately 60%. This molecule also yielded an inhibition at 100 µM with HL-60 [2] of approximately 25%.
